From ChEMBL document CHEMBL1151526, “3-Acetoxy-2,2-bi-1H-indol as a novel inhibitor of ATP binding to DnaA, the protein initiating chromosomal replication in escherichia coli” (Bioorg Med Chem Lett, 1994)

Test: Inhibition of [alpha-32P]ATP binding to DnaA protein purified from Escherichia coli

SMILES	IC50
O=C1C(c2c[nH]c3ccccc23)=C(c2c[nH]c3ccccc23)C(=O)N1Cc1ccccc1	> 10000 µM
CC(=O)Oc1c(-c2c(C(C)=O)c3ccccc3n2C(C)=O)[nH]c2ccccc12	1500 µM
CC(=O)Oc1c(-c2cc3ccccc3[nH]2)[nH]c2ccccc12	40 µM
CN(C)CCCn1cc(C2=C(c3c[nH]c4ccccc34)C(=O)NC2=O)c2ccccc21 [GF-109203]	3000 µM

Other lines, results leading:

IC50	SMILES
5000 µM	CC(c1ccccc1)N1C(=O)c2c(c3c4ccccc4[nH]c3c3[nH]c4ccccc4c23)C1=O (stereo not given)
1000 µM	O=C1NC(=O)C(c2c[nH]c3ccccc23)=C1c1c[nH]c2ccccc12 [RO-316233]
> 10000 µM	Nc1ncnc2c1ncn2[C@@H]1O[C@H](CO)[C@@H](O)[C@H]1O [ADENOSINE]
200 µM	CCOc1c(-c2cc3ccccc3[nH]2)[nH]c2ccccc12
200 µM	O=C1/C(=C2\Nc3ccccc3C2=O)Nc2ccccc21 [INDIGO]
> 10000 µM	c1ccc2[nH]ccc2c1 [INDOLE]
